In one assay the test system is Staph. aureus 133. Format: cell-based, Staphylococcus aureus. The following applies: Staph. aureus 133; 24 hours, 37°C.
The subject of another assay is E. coli A 261. As to the kind of experiment: MIC, test tube series dilution test, E. coli A 261. Format: cell-based. The following applies: 24 hours, 37°C.

Molecules are shown by their SMILES. Some results are limits rather than exact numbers.

With `CC1(C)S[C@@H]2[C@H](NC(=O)[C@H](NC(=O)c3ccc(NC(=O)CC4CC5CCC4C5)cc3)c3ccccc3)C(=O)N2[C@H]1C(=O)O` (single isomer, unassigned) [Example 15, sodium D(-)-α-[4-(2-norbornylacetamido-benzoylamino)]-benzylpenicillin], the MIC with Staph. aureus 133 is recorded as under 1 U/ml; with E. coli A 261, over 256 U/ml.

`CC1(C)S[C@@H]2[C@H](NC(=O)[C@H](NC(=O)c3ccc(NC(=O)C4CC4)cc3[N+](=O)[O-])c3ccccc3)C(=O)N2[C@H]1C(=O)O` [Example 3, sodium D(-)-α-(4-cyclopropanecarbonylamino-2-nitrobenzoylamino)-benzylpenicillin] showed an MIC against E. coli A 261 of over 256 U/ml. In the case of `CC1(C)S[C@@H]2[C@H](NC(=O)[C@H](NC(=O)c3ccc(NC(=O)C4CCC4)cc3[N+](=O)[O-])c3ccccc3)C(=O)N2[C@H]1C(=O)O` [Example 6, sodium D(-)-α-(4-cyclobutanecarbonylamino-2-nitro-benzoylamino)-benzylpenicillin], the MIC against Staph. aureus 133 is listed as under 1 U/ml; in the assay on E. coli A 261, over 256 U/ml. For `CC1(C)S[C@@H]2[C@H](NC(=O)[C@H](NC(=O)c3ccc(NC(=O)CCC4CCCC4)cc3)c3ccccc3)C(=O)N2[C@H]1C(=O)O` [Example 9, sodium D(-)-α-(4-[3-cyclopentylpropionylaminobenzoylamino)]-benzylpenicillin] the same measures were under 1 U/ml and over 256 U/ml. For `CC1(C)S[C@@H]2[C@H](NC(=O)[C@H](NC(=O)c3ccc(NC(=O)c4ccc5c(c4)OCO5)cc3)c3ccccc3)C(=O)N2[C@H]1C(=O)O` [Example 24] the same measures were under 1 U/ml and over 256 U/ml.

As to `CC1(C)S[C@@H]2[C@H](NC(=O)[C@H](NC(=O)c3ccc(NC(=O)c4ccc([N+](=O)[O-])cc4)cc3[N+](=O)[O-])c3ccccc3)C(=O)N2[C@H]1C(=O)O` [Example 27, sodium D(-)-α-[4-(4-nitrobenzoylamino)-2-nitrobenzoylamino]-benzylpenicillin], the MIC in the assay on Staph. aureus 133 is under 1 U/ml; with E. coli A 261, over 256 U/ml. As for `Cc1cc(C(=O)N[C@@H](C(=O)N[C@@H]2C(=O)N3[C@@H]2SC(C)(C)[C@@H]3C(=O)O)c2ccccc2)ccc1[N+](=O)[O-]` [Example 31, sodium D(-)-α-(4-nitro-3-methylbenzoylamino)-benzylpenicillin], the values for the MIC against Staph. aureus 133 and in the assay with E. coli A 261 were under 1 U/ml and over 256 U/ml, respectively.

In the case of `Cc1cc(C(=O)N[C@@H](C(=O)N[C@@H]2C(=O)N3[C@@H]2SC(C)(C)[C@@H]3C(=O)O)c2ccccc2)ccc1N` [Example 32, sodium D(-)-α-(4-amino-3-methyl-benzoylamino)-benzyl-penicillin], the MIC in the assay with Staph. aureus 133 is given as under 1 U/ml; against E. coli A 261, over 256 U/ml. For `CC(CC(=O)Nc1ccc(C(=O)N[C@@H](C(=O)N[C@@H]2C(=O)N3[C@@H]2SC(C)(C)[C@@H]3C(=O)O)c2ccccc2)cc1)N=[N+]=[N-]` (some centres unmarked) [Example 40], in that order: under 1 U/ml and over 256 U/ml. `CC1(C)S[C@@H]2[C@H](NC(=O)[C@H](NC(=O)c3ccc(NC(=O)c4cccs4)cc3)c3ccccc3)C(=O)N2[C@H]1C(=O)O` [Example 48] returned an MIC in the assay on Staph. aureus 133 of under 1 U/ml. For `CC1(C)S[C@@H]2[C@H](NC(=O)[C@H](NC(=O)C=Cc3ccc([N+](=O)[O-])cc3)c3ccccc3)C(=O)N2[C@H]1C(=O)O` [Example 54], the MIC in the assay with Staph. aureus 133 is given as under 1 U/ml; against E. coli A 261, over 256 U/ml. For `CC1(C)S[C@@H]2[C@H](NC(=O)[C@H](NC(=O)C=Cc3ccc(NC(=O)C4CC4)cc3)c3ccccc3)C(=O)N2[C@H]1C(=O)O` [Example 56] the same measures were under 1 U/ml and over 256 U/ml. The molecule `CC1(C)S[C@@H]2[C@H](NC(=O)[C@H](NC(=O)CSc3ccc(NC(=O)CC4C=CCC4)cc3)c3ccccc3)C(=O)N2[C@H]1C(=O)O` (some centres unmarked) [Example 62] had an MIC with E. coli A 261 of over 256 U/ml.

(Values after patent publication US4001218A, “Penicillins” (Bayer Aktiengesellschaft, priority 1972, dated 1977).)
